Patent publication US11089783B2, “2-(het)aryl-substituted fused heterocycle derivatives as pesticides” (Bayer Aktiengesellschaft, priority 2017, dated 2021)

How the values were obtained:
Format in all cases: in vivo
Myzus persicae [1] = assay: Myzus persicae oral test; conditions: 120 h, after 5 days, read-out: efficacy
In short: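 Compound solution in IPL41 insect medium with sugar was sealed under parafilm, through which a mixed population of green peach aphids fed. Mortality was scored after 5 days as % efficacy, with 100% meaning all aphids killed.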

Aphis gossypii = Aphis gossypii spray test (APHIGO), cotton plants; conditions: Aphis gossypii, 144 h, 4 ppm, 6 dat, read-out: % efficacy
In short: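 Cotton plants (Gossypium hirsutum) heavily infested with cotton aphids were sprayed with the active ingredient formulated in emulsifier-containing water (1000 ppm emulsifier), with ammonium salt or penetrant added at 1000 ppm where required. After the set time, percent kill was determined, where 100% means all aphids dead.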

Meloidogyne incognita = Meloidogyne incognita drench test (MELGIN D); conditions: soil, 504 h, 21 dat, read-out: % efficacy
Procedure: [table] To produce an appropriate active ingredient formulation, 1 part by weight of active ingredient is mixed with the specified amounts of solvent and emulsifier and the concentrate is diluted to the desired concentration with water, it being necessary to take into account the volume of soil into which drenching is effected. It should be ensured that a concentration of 20 ppm of emulsifier in the soil is not exceeded. For production of further test concentrations, the mixture is diluted with water. Pots filled with soil (loamy sand) are drenched with the active ingredient solution. An egg/larvae suspension of the southern root-knot nematode (Meloidogyne incognita) is added, and lettuce seeds are scattered over the soil surface and covered with quartz sand. The lettuce seeds germinate and the seedlings develop. The root-knots develop on the roots. After the desired time, the nematicidal effect is determined with reference to the root-knot formation in %. 100% means that no root-knots were found; 0% means that the number of root-knots on the treated plants corresponds to that on the untreated control.

Phaedon cochleariae = Phaedon cochleariae spray test (PHAECO S), cabbage leaves; conditions: Phaedon cochleariae, 168 h, 7 dat, read-out: % efficacy
Procedure: [table] To produce an appropriate active ingredient formulation, 1 part by weight of active ingredient is dissolved with the specified parts by weight of solvent and made up with water containing an emulsifier concentration of 1000 ppm until the desired concentration is attained. To produce further test concentrations, the mixture is diluted with emulsifier-containing water. If addition of ammonium salts or/and penetrants is required, these are each added to the preparation solution in a concentration of 1000 ppm. Cabbage leaves (Brassica oleracea) are sprayed with an active ingredient formulation of the desired concentration and populated with larvae of the mustard beetle (Phaedon cochleariae). After the desired time, the kill in % is determined. 100% means that all beetle larvae have been killed; 0% means that no beetle larvae have been killed.

Lucilia cuprina = Lucilia cuprina test; conditions: 48 h, L1 larvae, after 2 days, read-out: efficacy (kill)
In short: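 About 20 L1 larvae of Lucilia cuprina placed on minced horsemeat containing compound (DMSO stock diluted in water to test concentration). Kill (%) scored after 2 days; 100% = all larvae dead, 0% = none dead.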

Myzus persicae [2] = assay: Myzus persicae spray test (MYZUPE S), bell pepper plants; conditions: 144 h, 6 dat, read-out: % efficacy
In short: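 Infested bell pepper plants (Capsicum annuum) sprayed with active ingredient in emulsifier-containing water (1000 ppm emulsifier; ammonium salts/penetrants at 1000 ppm if required). Kill scored in % after the chosen time; 100% = all aphids dead, 0% = none.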

Ctenocephalides felis = Ctenocephalides felis in vitro contact test with adult cat fleas; conditions: 5 μg/cm^2 (=500 g/ha), after 48 h
Procedure: For the coating of the test tubes, 9 mg of active ingredient are first dissolved in 1 ml of acetone p.a. and then diluted to the desired concentration with acetone p.a. 250 μl of the solution are distributed homogeneously on the inner walls and the base of a 25 ml glass tube by turning and rocking on an orbital shaker (rocking rotation at 30 rpm for 2 h). With 900 ppm of active ingredient solution and internal surface area 44.7 cm^2, given homogeneous distribution, an area-based dose of 5 μg/cm^2 is achieved. After the solvent has evaporated off, the tubes are populated with 5-10 adult cat fleas (Ctenocephalides felis), sealed with a perforated plastic lid and incubated in a horizontal position at room temperature and ambient humidity. After 48 h, efficacy is determined. To this end, the tubes are stood upright and the fleas are knocked to the base of the tube. Fleas which remain motionless at the base or move in an uncoordinated manner are considered to be dead or moribund. […] 100% efficacy means that all the fleas were dead or moribund. 0% efficacy means that no fleas were harmed.

Musca domestica = Musca domestica test; conditions: 100 ppm, adult houseflies, after 2 days
Procedure: Solvent: dimethyl sulfoxide To produce a suitable active ingredient formulation, 10 mg of active ingredient are mixed with 0.5 ml of dimethyl sulfoxide, and the concentrate is diluted with water to the desired concentration. Vessels containing a sponge treated with sugar solution and the active ingredient formulation of the desired concentration are populated with 10 adult houseflies (Musca domestica). After 2 days, the kill in % is determined. 100% means that all of the flies have been killed; 0% means that none of the flies have been killed.

Structure (SMILES)	pest or weed control at 0.8 ppm (Myzus persicae [1]) [%]	Emax at 4 ppm (Aphis gossypii) [%]	Emax at 1 ppm (Meloidogyne incognita; 1 ppm) [%]	Emax at 2 ppm (Meloidogyne incognita; 2 ppm) [%]	Emax at 4 ppm (Phaedon cochleariae; 4 ppm) [%]	Emax at 20 ppm (Phaedon cochleariae) [%]	pest or weed control at 100 ppm (Lucilia cuprina) [%]	Emax at 0.16 ppm (Myzus persicae [2]; 0.16 ppm) [%]	Emax at 0.8 ppm (Myzus persicae [2]; 0.8 ppm) [%]	efficacy (Ctenocephalides felis) [%]	efficacy (kill) (Musca domestica) [%]
CCS(=O)(=O)c1ccc(NC(=O)NC)nc1-c1nc2cc(C(F)(F)C(F)(F)F)nnc2n1C [Example I-08, 1-{5-(ethylsulfonyl)-6-[7-methyl-3-(pentafluoroethyl)-7H-imidazo[4,5-c]pyridazin-6-yl]pyridin-2-yl}-3-methylurea]	90	95	100	100	70	90	100	–	–	–	–
CCS(=O)(=O)c1ccc(N(C)C(=O)NC)nc1-c1nc2cc(C(F)(F)C(F)(F)F)nnc2n1C [Example I-09]	90	–	–	–	–	–	100	80	100	100	–
CCS(=O)(=O)c1ccc(NC(=O)N(C)C)nc1-c1nc2cc(C(F)(F)C(F)(F)F)nnc2n1C [Example I-10]	100	75	–	–	–	80	100	–	–	100	90
CCNC(=O)Nc1ccc(S(=O)(=O)CC)c(-c2nc3cc(C(F)(F)C(F)(F)F)nnc3n2C)n1 [Example I-13]	100	–	–	–	–	–	100	–	–	100	80
